In ChEMBL document CHEMBL3085706, “Scorpiand-like azamacrocycles prevent the chronic establishment of Trypanosoma cruzi in a murine model” (Eur J Med Chem, 2013):
Active and inactive are the calls of the source. No cut-off for these calls is given here.

Tests used:
Trypanosoma cruzi [1] = assay: Trypanocidal activity against extracellular trypomastigote form of Trypanosoma cruzi IRHOD/CO/2008/SN3 after 24 hrs by Neubauer hemocytometric analysis; format: functional, organism-based; settings: IRHOD/CO/2008/SN3, 24 h
Trypanosoma cruzi [2] = assay: Trypanocidal activity against intracellular amastigote form of Trypanosoma cruzi IRHOD/CO/2008/SN3 infected in African green monkey Vero cells after 72 hrs by Giemsa staining assay; format: functional, organism-based; settings: IRHOD/CO/2008/SN3, Vero
Trypanosoma cruzi [3] = assay: Trypanocidal activity against extracellular epimastigote form of Trypanosoma cruzi IRHOD/CO/2008/SN3 after 72 hrs by Neubauer hemocytometric analysis; format: functional, organism-based; settings: IRHOD/CO/2008/SN3, 72 h
Trypanosoma cruzi [4] = assay: Trypanocidal activity against epimastigote form of Trypanosoma cruzi IRHOD/CO/2008/SN3 assessed as induction of ethanol production at IC25 after 96 hrs by NMR spectra analysis; format: functional, organism-based
Trypanosoma cruzi [5] = assay: Trypanocidal activity against epimastigote form of Trypanosoma cruzi IRHOD/CO/2008/SN3 assessed as inhibition of acetate excretion at IC25 after 96 hrs by NMR spectra analysis; format: functional, organism-based
[6] = Inhibition of Escherichia coli Mn-SOD assessed as reduction of nitrobluetetrazolium measured for 10 mins by spectrophotometric analysis
[7] = Inhibition of Fe-SOD in Trypanosoma cruzi IRHOD/CO/2008/SN3 epimastigotes assessed as reduction of nitrobluetetrazolium measured for 10 mins by spectrophotometric analysis
Trypanosoma cruzi [8] = assay: Inhibition of Fe-SOD in Trypanosoma cruzi IRHOD/CO/2008/SN3 epimastigotes assessed as reduction of nitrobluetetrazolium at 12.5 to 25 uM measured for 10 mins by spectrophotometric analysis relative to control
Trypanosoma cruzi [9] = assay: Trypanocidal activity against epimastigote form of Trypanosoma cruzi IRHOD/CO/2008/SN3 assessed as dispersed cytoplasm at IC25 after 96 hrs by transmission electron microscopic analysis; format: functional, organism-based
Trypanosoma cruzi [10] = assay: Trypanocidal activity against epimastigote form of Trypanosoma cruzi IRHOD/CO/2008/SN3 assessed as empty mitochondria at IC25 after 96 hrs by transmission electron microscopic analysis; format: functional, organism-based
Trypanosoma cruzi [11] = assay: Trypanocidal activity against epimastigote form of Trypanosoma cruzi IRHOD/CO/2008/SN3 assessed as abundant larger acidocalcisomes at IC25 after 96 hrs by transmission electron microscopic analysis; format: functional, organism-based
Trypanosoma cruzi [12] = assay: Trypanocidal activity against epimastigote form of Trypanosoma cruzi IRHOD/CO/2008/SN3 assessed as appearance of strongly electrondensed glycosomes at IC25 after 96 hrs by transmission electron microscopic analysis; format: functional, organism-based
Trypanosoma cruzi [13] = assay: Trypanocidal activity against epimastigote form of Trypanosoma cruzi IRHOD/CO/2008/SN3 assessed as appearance of large vacuoles at IC25 after 96 hrs by transmission electron microscopic analysis; format: functional, organism-based
Mus musculus [14] = assay: Hepatotoxicity in BALB/c mouse infected with bloodstream trypomastigote form of Trypanosoma cruzi IRHOD/CO/2008/SN3 assessed as presence of necrotic cells in portal space at 5 mg/kg/day, ip administered for 5 days measured 150 days post-infection by light microscopic analysis; format: toxicity, organism-based; design: route intraperitoneal; settings: in vivo, 3600 h
Mus musculus [15] = assay: Hepatotoxicity in BALB/c mouse infected with bloodstream trypomastigote form of Trypanosoma cruzi IRHOD/CO/2008/SN3 assessed as hepatic destruction in portal space at 5 mg/kg/day, ip administered for 5 days measured 150 days post-infection by light microscopic analysis; format: toxicity, organism-based; design: route intraperitoneal; settings: in vivo, 3600 h
Mus musculus [16] = assay: Hepatotoxicity in BALB/c mouse infected with bloodstream trypomastigote form of Trypanosoma cruzi IRHOD/CO/2008/SN3 assessed as centrilobular destruction of hepatic vein at 5 mg/kg/day, ip administered for 5 days measured 150 days post-infection by light microscopic analysis; format: toxicity, organism-based; design: route intraperitoneal; settings: in vivo, 3600 h
Mus musculus [17] = assay: Hepatotoxicity in BALB/c mouse infected with bloodstream trypomastigote form of Trypanosoma cruzi IRHOD/CO/2008/SN3 assessed as lymphocytic infiltration in portal tracts at 5 mg/kg/day, ip administered for 5 days measured 150 days post-infection by light microscopic analysis; format: toxicity, organism-based; design: route intraperitoneal; settings: in vivo, 3600 h
Mus musculus [18] = assay: Hepatotoxicity in BALB/c mouse infected with bloodstream trypomastigote form of Trypanosoma cruzi IRHOD/CO/2008/SN3 assessed as vessels with thickened walls at 5 mg/kg/day, ip administered for 5 days measured 150 days post-infection by light microscopic analysis; format: toxicity, organism-based; design: route intraperitoneal; settings: in vivo
Mus musculus [19] = assay: Hepatotoxicity in BALB/c mouse infected with bloodstream trypomastigote form of Trypanosoma cruzi IRHOD/CO/2008/SN3 assessed as delocalized hepatic destruction at 5 mg/kg/day, ip administered for 5 days measured 150 days post-infection by light microscopic analysis; format: toxicity, organism-based; design: route intraperitoneal; settings: in vivo, 3600 h
Mus musculus [20] = assay: Hepatotoxicity in BALB/c mouse infected with bloodstream trypomastigote form of Trypanosoma cruzi IRHOD/CO/2008/SN3 assessed as granuloma with lymphocytic infiltrate at 5 mg/kg/day, ip administered for 5 days measured 150 days post-infection by light microscopic analysis; format: toxicity, organism-based; design: route intraperitoneal; settings: in vivo, 3600 h
Trypanosoma cruzi [21] = assay: Trypanocidal activity against bloodstream trypomastigote form of Trypanosoma cruzi IRHOD/CO/2008/SN3 infected in BALB/c mouse assessed as reduction of parasite load in liver at 5 mg/kg/day, ip administered for 5 days measured 150 days post-infection by PCR analysis; format: functional, organism-based
Trypanosoma cruzi [22] = assay: (§1) Trypanocidal activity against bloodstream trypomastigote form of Trypanosoma cruzi IRHOD/CO/2008/SN3 infected in cyclophosphamide monohydrate-treated BALB/c immunosuppression mouse model assessed as reduction of parasite load in liver at 5 mg/kg/day, ip administered for 5 days measured 150 days post-infection by PCR analysis; format: functional, organism-based
Trypanosoma cruzi [23] = assay: as §1, with “heart” for “liver”; format: functional, organism-based
Trypanosoma cruzi [24] = assay: Trypanocidal activity against bloodstream trypomastigote form of Trypanosoma cruzi IRHOD/CO/2008/SN3 infected in BALB/c mouse assessed as reduction of parasite load in heart at 5 mg/kg/day, ip administered for 5 days measured 150 days post-infection by PCR analysis; format: functional, organism-based
Trypanosoma cruzi [25] = assay: as §1, with “reactivation” for “reduction”, “parasitemia level” for “parasite load in liver”, “(reference value: 91.7 %)” for “by PCR analysis”; format: functional; settings: route intraperitoneal
Trypanosoma cruzi [26] = assay: Trypanocidal activity against bloodstream trypomastigote form of Trypanosoma cruzi IRHOD/CO/2008/SN3 infected in BALB/c mouse assessed as reduction of anti-parasitic Ig-G level in serum at 5 mg/kg/day, ip administered for 5 days measured over 40 to 120 days post-infection by ELISA; format: functional, organism-based
Trypanosoma cruzi [27] = assay: Trypanocidal activity against bloodstream trypomastigote form of Trypanosoma cruzi IRHOD/CO/2008/SN3 infected in BALB/c mouse assessed as reduction of circulating parasite burden at 5 mg/kg, ip administered for 5 to 10 days measured 22 to 60 days post-infection by Neubauer hemocytometric analysis; format: functional, organism-based; design: dose 5 mg/kg
Trypanosoma cruzi [28] = assay: Trypanocidal activity against trypomastigote form of Trypanosoma cruzi IRHOD/CO/2008/SN3 infected in African green monkey Vero cells assessed as inhibition of trypomastigotes released in culture medium at IC25 relative to control; format: functional
Trypanosoma cruzi [29] = assay: (§2) Trypanocidal activity against amastigote form of Trypanosoma cruzi IRHOD/CO/2008/SN3 infected in African green monkey Vero cells assessed as inhibition of amastigotes load per cell at IC25 preincubated for 12 hrs followed by compound washout measured after 10 days by Giemsa staining-based microscopic analysis relative to control; format: functional
Trypanosoma cruzi [30] = assay: as §2, with “parasite infection rate” for “amastigotes load per cell”; format: functional
[31] = Selectivity index, ratio of IC50 for African green monkey Vero cells to IC50 for extracellular trypomastigote form of Trypanosoma cruzi IRHOD/CO/2008/SN3; format: toxicity, cell-based; settings: read-out: Ratio IC50
[32] = Selectivity index, ratio of IC50 for African green monkey Vero cells to IC50 for intracellular amastigote form of Trypanosoma cruzi IRHOD/CO/2008/SN3; format: toxicity, cell-based; settings: read-out: Ratio IC50
[33] = Selectivity index, ratio of IC50 for African green monkey Vero cells to IC50 for extracellular epimastigote form of Trypanosoma cruzi IRHOD/CO/2008/SN3; format: toxicity, cell-based; settings: read-out: Ratio IC50
Vero = assay: Cytotoxicity against African green monkey Vero cells after 72 hrs by flow cytometric analysis; format: cell-based; settings: Chlorocebus sabaeus
Trypanosoma cruzi [34] = assay: Trypanocidal activity against bloodstream trypomastigote form of Trypanosoma cruzi IRHOD/CO/2008/SN3 infected in cyclophosphamide monohydrate-treated BALB/c immunosuppression mouse model assessed as reduction of total anti-parasitic Ig-G level in serum at 5 mg/kg/day, ip administered for 5 days measured 150 days post-infection by ELISA; format: functional, organism-based
Mus musculus [35] = assay: Hepatotoxicity in BALB/c mouse infected with bloodstream trypomastigote form of Trypanosoma cruzi IRHOD/CO/2008/SN3 assessed as interstitial hemorrhage at 5 mg/kg/day, ip administered for 5 days measured 150 days post-infection by light microscopic analysis; format: toxicity, organism-based; design: route intraperitoneal; settings: in vivo, 3600 h
Trypanosoma cruzi [36] = assay: Trypanocidal activity against epimastigote form of Trypanosoma cruzi IRHOD/CO/2008/SN3 assessed as inhibition of lactate excretion at IC25 after 96 hrs by NMR spectra analysis; format: functional, organism-based
Trypanosoma cruzi [37] = assay: Trypanocidal activity against epimastigote form of Trypanosoma cruzi IRHOD/CO/2008/SN3 assessed as inhibition of alanine excretion at IC25 after 96 hrs by NMR spectra analysis; format: functional, organism-based
Trypanosoma cruzi [38] = assay: Trypanocidal activity against epimastigote form of Trypanosoma cruzi IRHOD/CO/2008/SN3 assessed as effect on succinate production at IC25 after 96 hrs by NMR spectra analysis; format: functional, organism-based

Compound	IC50 (Trypanosoma cruzi [1]) [µM]	IC50 (Trypanosoma cruzi [2]) [µM]	IC50 (Trypanosoma cruzi [3]) [µM]	Activity (Mus musculus [14])	Activity (Mus musculus [15])	Activity (Mus musculus [16])	Activity (Mus musculus [17])	Activity (Mus musculus [18])	Activity (Mus musculus [19])	Activity (Mus musculus [20])	Activity (Trypanosoma cruzi [26])	Activity (Trypanosoma cruzi [27])	inhibition (INH) (Trypanosoma cruzi [28]) [%]	inhibition (INH) (Trypanosoma cruzi [29]) [%]	inhibition (INH) (Trypanosoma cruzi [30]) [%]	selectivity ratio [31]	selectivity ratio [32]	selectivity ratio [33]	IC50 (Vero) [µM]	Activity (Mus musculus [35])	further results
Cl.c1cncc(CNCCN2CCNCc3cccc(n3)CNCC2)c1	19.7	9.5	8	Non-toxic	Non-toxic	Non-toxic	Toxic	Toxic	Toxic	Toxic	Active	Active	89	69	86	21.6	44.8	52.7	425	Non-toxic	Activity (Trypanosoma cruzi [4]): Active; inhibition (Trypanosoma cruzi [5]): Active; IC50 [6]: 63.6 µM; IC50 [7]: 10.8 µM; inhibition (Trypanosoma cruzi [8]): 100%; Activity (Trypanosoma cruzi [9]): Active; Activity (Trypanosoma cruzi [10]): Active; Activity (Trypanosoma cruzi [11]): Active; Activity (Trypanosoma cruzi [12]): Active; Activity (Trypanosoma cruzi [13]): Active; Activity (Trypanosoma cruzi [21]): Active; Activity (Trypanosoma cruzi [22]): Active; Activity (Trypanosoma cruzi [23]): Active; Activity (Trypanosoma cruzi [24]): Active; Activity (Trypanosoma cruzi [25]): 5.6%; Activity (Trypanosoma cruzi [34]): Active; inhibition (Trypanosoma cruzi [36]): Active; inhibition (Trypanosoma cruzi [37]): Active; Activity (Trypanosoma cruzi [38]): inactive
c1cc2nc(c1)CNCCN(CCNCc1cccc3ccccc13)CCNC2	19.5	16.1	10	–	–	–	–	–	–	–	–	–	–	–	–	16.7	20.2	31.2	325	–	–
O=C(Cn1ccnc1[N+](=O)[O-])NCc1ccccc1 [BENZNIDAZOLE]	22.6	23	–	Toxic	Toxic	Non-toxic	Non-toxic	Non-toxic	Toxic	Toxic	Active	Active	27	12	39	–	–	–	–	Non-toxic	–
